Source: ChEMBL document CHEMBL3792309, “Seeking potent anti-tubercular agents: Design, synthesis, anti-tubercular activity and docking study of various ((triazoles/indole)-piperazin-1-yl/1,4-diazepan-1-yl)benzo[d]isoxazole derivatives” (Bioorg Med Chem Lett, 2016)
In brackets after ≈: the same amount, converted by molar mass.

System: Mycobacterium tuberculosis
Test: Antimicrobial activity against p-aminosalicylic acid/isonicotinic acid hydrazide/etambutol/rifampicin resistant Mycobacterium tuberculosis Spec. 210 by classical test tube method
Assay type: functional

In the case of `Clc1cccc(-n2cc(CN3CCN(c4noc5ccccc45)CC3)nn2)c1`, the MIC is reported as 63.4 µM (≈ 25 µg/mL).
`Brc1ccc(-n2cc(CN3CCN(c4noc5ccccc45)CC3)nn2)cc1` was tested, and the MIC was > 200 µM.
For `COc1cccc(-n2cc(CN3CCCN(c4noc5ccccc45)CC3)nn2)c1`, the MIC was > 200 µM.
In the case of `C#CCN1CCN(c2noc3cc(Cl)ccc23)CC1`, the MIC is reported as > 200 µM.
For `C#CCN1CCCN(c2noc3ccccc23)CC1`, the MIC was 196 µM (≈ 50 µg/mL).
`Fc1ccc(-n2cc(CN3CCCN(c4noc5ccccc45)CC3)nn2)cc1` showed an MIC of 127 µM (≈ 50 µg/mL).
With `Clc1ccc(-n2cc(CN3CCCN(c4noc5ccccc45)CC3)nn2)cc1` the MIC was > 200 µM.
`Fc1ccc(-n2cc(CN3CCN(c4noc5ccccc45)CC3)nn2)cc1` showed an MIC of 132 µM (≈ 50 µg/mL).
Compound `FC(F)(F)c1cc(-n2cc(CN3CCN(c4noc5ccccc45)CC3)nn2)ccc1Br` has an MIC of 6.16 µM (≈ 3.13 µg/mL).
`FC(F)(F)c1cc(-n2cc(CN3CCCN(c4noc5ccccc45)CC3)nn2)ccc1Br` showed an MIC of 24 µM (≈ 12.5 µg/mL).
For `CCc1ccc(-n2cc(CN3CCCN(c4noc5ccccc45)CC3)nn2)cc1`, the MIC was > 200 µM.
For `CCc1ccc(-n2cc(CN3CCN(c4noc5ccccc45)CC3)nn2)cc1`, the MIC was > 200 µM.
In the case of `O=C(Cc1c[nH]c2ccccc12)N1CCN(c2noc3ccccc23)CC1`, the MIC is reported as > 200 µM.
Compound `Fc1ccc(-n2cc(CN3CCN(c4noc5cc(Cl)ccc45)CC3)nn2)cc1` has an MIC of 121 µM (≈ 50.1 µg/mL).
With `COc1ccc(-n2cc(CN3CCCN(c4noc5ccccc45)CC3)nn2)cc1` the MIC was > 200 µM.
Work on `O=C(Cc1c[nH]c2ccccc12)N1CCN(c2noc3cc(Cl)ccc23)CC1` yielded an MIC of 127 µM (≈ 50.1 µg/mL).
`O=[N+]([O-])c1ccc(-n2cc(CN3CCN(c4noc5cc(Cl)ccc45)CC3)nn2)cc1` was tested, and the MIC was > 200 µM.
With `Clc1ccc(-n2cc(CN3CCN(c4noc5ccccc45)CC3)nn2)cc1` the MIC was > 200 µM.
In the case of `FC(F)(F)c1cccc(-n2cc(CN3CCN(c4noc5ccccc45)CC3)nn2)c1`, the MIC is reported as 29.2 µM (≈ 12.5 µg/mL).
With `O=C(CCCc1c[nH]c2ccccc12)N1CCN(c2noc3ccccc23)CC1` the MIC was > 200 µM.
With `CCc1ccc(-n2cc(CN3CCN(c4noc5cc(Cl)ccc45)CC3)nn2)cc1` the MIC was > 200 µM.
Work on `O=C(Cc1c[nH]c2ccccc12)N1CCCN(c2noc3ccccc23)CC1` yielded an MIC of 134 µM (≈ 50 µg/mL).
`O=[N+]([O-])c1ccc(-n2cc(CN3CCCN(c4noc5ccccc45)CC3)nn2)cc1` was tested, and the MIC was > 200 µM.
`Clc1cccc(-n2cc(CN3CCCN(c4noc5ccccc45)CC3)nn2)c1` showed an MIC of 122 µM (≈ 50.1 µg/mL).
`COc1cccc(-n2cc(CN3CCN(c4noc5ccccc45)CC3)nn2)c1` gave an MIC of 128 µM (≈ 50 µg/mL).
For `O=C(CCc1c[nH]c2ccccc12)N1CCN(c2noc3cc(Cl)ccc23)CC1`, the MIC was > 200 µM.
`Clc1ccc(-n2cc(CN3CCN(c4noc5cc(Cl)ccc45)CC3)nn2)cc1` was tested, and the MIC was > 200 µM.
`COc1ccc(-n2cc(CN3CCN(c4noc5ccccc45)CC3)nn2)cc1` was tested, and the MIC was > 200 µM.
For `FC(F)(F)c1cccc(-n2cc(CN3CCCN(c4noc5ccccc45)CC3)nn2)c1`, the MIC was 28.3 µM (≈ 12.5 µg/mL).
For `O=[N+]([O-])c1ccc(-n2cc(CN3CCN(c4noc5ccccc45)CC3)nn2)cc1`, the MIC was > 200 µM.
`C#CCN1CCN(c2noc3ccccc23)CC1` was tested, and the MIC was > 200 µM.
`COc1ccc(-n2cc(CN3CCN(c4noc5cc(Cl)ccc45)CC3)nn2)cc1` was tested, and the MIC was 118 µM (≈ 50.1 µg/mL).
With `NNC(=O)c1ccncc1` [ISONIAZID] the MIC was 91.1 µM (≈ 12.5 µg/mL).
For `Brc1ccc(-n2cc(CN3CCCN(c4noc5ccccc45)CC3)nn2)cc1`, the MIC was > 200 µM.
`O=C(CCCc1c[nH]c2ccccc12)N1CCN(c2noc3cc(Cl)ccc23)CC1` was tested, and the MIC was > 200 µM.
For `O=C(CCc1c[nH]c2ccccc12)N1CCN(c2noc3ccccc23)CC1`, the MIC was > 200 µM.
In the case of `O=C(CCCc1c[nH]c2ccccc12)N1CCCN(c2noc3ccccc23)CC1`, the MIC is reported as > 200 µM.
For `O=C(CCc1c[nH]c2ccccc12)N1CCCN(c2noc3ccccc23)CC1`, the MIC was > 200 µM.
For `Clc1ccc2c(N3CCN(Cc4cn(-c5ccc(Br)cc5)nn4)CC3)noc2c1`, the MIC was > 200 µM.
